{"source": "patent US20190167676A1", "about": "“METHODS FOR IMPROVING RESISTANCE TO SKELETAL MUSCLE FATIGUE” (Cytokinetics, Inc., priority 2012, published 2019)", "key": {"[1]": {"assay": "Plasma concentrations, Phase II study", "format": "in vivo, human"}, "fast skeletal troponin": {"target": "fast skeletal troponin (Homo sapiens, UniProt P02585)", "sequence (P02585 whole entry)": "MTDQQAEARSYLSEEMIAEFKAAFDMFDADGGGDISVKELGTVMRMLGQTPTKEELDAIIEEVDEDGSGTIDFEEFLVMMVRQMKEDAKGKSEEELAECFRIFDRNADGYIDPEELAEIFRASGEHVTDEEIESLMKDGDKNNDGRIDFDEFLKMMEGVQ", "sequence (P48788 whole entry partner)": "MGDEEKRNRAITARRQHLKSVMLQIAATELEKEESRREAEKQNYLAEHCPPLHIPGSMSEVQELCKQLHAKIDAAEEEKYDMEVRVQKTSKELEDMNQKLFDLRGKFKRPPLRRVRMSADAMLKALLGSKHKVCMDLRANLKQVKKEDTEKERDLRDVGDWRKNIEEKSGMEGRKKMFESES", "sequence (P45378 whole entry partner)": "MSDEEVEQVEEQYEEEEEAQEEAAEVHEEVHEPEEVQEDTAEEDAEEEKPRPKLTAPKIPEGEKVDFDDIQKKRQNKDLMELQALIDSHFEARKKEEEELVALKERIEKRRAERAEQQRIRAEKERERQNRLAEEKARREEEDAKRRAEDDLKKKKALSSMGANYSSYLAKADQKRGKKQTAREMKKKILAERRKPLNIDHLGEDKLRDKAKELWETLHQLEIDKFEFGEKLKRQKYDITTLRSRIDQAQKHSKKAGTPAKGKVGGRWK", "details": "isothermal titration calorimetry; cited from earlier work"}, "[2]": {"tested_on": "skinned human vastus lateralis fast fibers", "details": "skinned fast fibers from muscle biopsies; cited from earlier work"}, "[3]": {"target": "T1, myofibrils from slow skeletal muscle (Homo sapiens, UniProt P63316)", "T1 construct": "from tissue; host or cells: slow skeletal muscle myofibrils", "details": "cited from earlier work"}, "rat EDL muscle [4]": {"tested_on": "rat EDL muscle", "assay": "Fatigue in rat EDL muscle in situ", "format": "in vivo", "excerpt": "Rats were placed under anesthesia using isoflurane and the skin around the experimental leg was removed. The distal end of the EDL muscle and its associated tendon were then isolated. The rat was then placed on the platform of an Aurora in-situ muscle analysis rig (806C), maintained at body temperature via a circulating water system. The knee was immobilized in a clamp between two sharpened screws and the distal tendon cut and tied to the arm of a force transducer (Aurora Scientific, Ontario, Canada) using a silk suture. The muscle was stimulated directly via the peroneal nerve. For isolation of the nerve, a 1 cm incision was made at the upper thigh and the overlying gastrocnemius muscle was cut to expose an approximate 5 mm stretch of the peroneal nerve. […] Muscle contractile properties were assessed by applying an electrical current to the nerve and recording the force generated by the muscle via a servomotor. […]\nWith the rat in situ EDL muscle preparation described in Example 3, a fatiguing protocol was utilized where muscle was stimulated for 600 seconds. […] To elicit muscle fatigue, the EDL muscle was stimulated with 350 msec electrical trains every 3 seconds for ten minutes at a frequency producing an initial force equal to 50% of maximal (FMax50) as determined by the force-frequency relationship for each animal."}, "rat EDL muscle [5]": {"tested_on": "rat EDL muscle", "assay": "Fatigue in rat EDL muscle following femoral artery ligation (FAL)", "format": "in vivo", "details": "for average stimulation frequency for force production similar to pre-dose: vehicle 30 Hz", "excerpt": "Rats were placed under anesthesia using isoflurane and the skin around the experimental leg was removed. The distal end of the EDL muscle and its associated tendon were then isolated. The rat was then placed on the platform of an Aurora in-situ muscle analysis rig (806C), maintained at body temperature via a circulating water system. The knee was immobilized in a clamp between two sharpened screws and the distal tendon cut and tied to the arm of a force transducer (Aurora Scientific, Ontario, Canada) using a silk suture. The muscle was stimulated directly via the peroneal nerve. For isolation of the nerve, a 1 cm incision was made at the upper thigh and the overlying gastrocnemius muscle was cut to expose an approximate 5 mm stretch of the peroneal nerve. This was then dissected free of surrounding connective tissue and a pair of stainless steel needle electrodes (0.10 mm) were hooked around the exposed nerve. Muscle contractile properties were assessed by applying an electrical current to the nerve and recording the force generated by the muscle via a servomotor. The muscle length was adjusted to produce the maximum isometric force (Lo) after sub-maximal stimulation (30 Hz, 1 ms pulses, 350 ms train duration). Once Lo had been established, the nerve was stimulated every 2 minutes with a 30 Hz train (1 ms stimuli, 350 ms duration) for the course of the experiment. This preparation was stable for 4-6 hours.\nWith the rat in situ EDL muscle preparation described in Example 3, a fatiguing protocol was utilized where muscle was stimulated for 600 seconds. Vehicle-treated muscle was electrically stimulated at 30 Hz while the stimulation frequency was reduced in Compound A treated rats to ensure similar force production to pre-dose levels, prior to femoral artery ligation (average stimulation frequency of 29 and 26Hz, for 0.5 mg/kg and 1 mg/kg Compound A, respectively). This protocol produced a robust and reproducible fatigue in EDL muscle following femoral artery ligation, with a transient increase to 136.0±6.8% of initial force over the first 90-100 seconds, followed by a rapid drop in force before stabilization at approximately 40% of initial force. The initial rise in tension is believed to be due to Pi-induced increases in free intracellular Ca^2+ due to inhibition of sarco(endo)plasmic reticulum Ca^2+-ATPases (SERCAs) pumping into the SR (Allen, Physiol Rev 88:287-332, 2008). Following ligation of the femoral artery (R. A. Challiss et al. Biochem J. 1986 Dec. 1; 240(2):395-401) Compound A was administered in solution (50% PEG300/10% EtOH/40% Cavitron formulation) via a jugular vein catheter as a single slow bolus over a 2 min period.\nTime for force to decrease to 50% of initial force was lengthened from 259±30 seconds to […] (P<0.0001, T-test)."}, "[6]": {"tested_on": "patients with peripheral artery disease and claudication", "assay": "Safety and tolerability, Phase II study", "format": "in vivo, human", "experimental": "This study was a double-blind, randomized, placebo-controlled, three-period cross-over, hypothesis generating Phase II study in patients with peripheral artery disease and claudication. […] Secondary objectives included (a) evaluation and characterization of the relationship, if any, between the doses and plasma concentrations of Compound A and its pharmacodynamic effects, and (b) evaluation of the safety and tolerability of Compound A administered as single doses.\nSingle doses of each of 375 mg Compound A, 750 mg Compound A and placebo were administered in random order with a 6 to 10 day wash out between each dose. […] Assessments include 1) Bilateral Heel Raise Test (as described below) using electrogoniometry at 3 and 6 hours after dosing, and 2) 6-Minute Walk Test at 4 hours after dosing. Results were analyzed using a repeated-measures ANCOVA with treatment, sequence, period, baseline, and patient in the model. In the event of model assumption violations, non-parametric methods were utilized"}}}
{"smiles": "C#Cc1cnc2nc(O)n(C(CC)CC)c2n1", "note": "[Compound A, 6-ethynyl-1-(pentan-3-yl)-1H-imidazo[4,5-b]pyrazin-2-ol]", "values": [{"measurement": "mean plasma concentrations vs dose", "setting": "[1]; 375, 500, 750 mg single doses", "result": "relatively dose proportional increases"}, {"measurement": "mean plasma concentrations over 24-hour observation period", "setting": "[1]; even at the 375 mg dose", "result": "remained within the pharmacologically active range"}, {"measurement": "Kd", "setting": "fast skeletal troponin", "result": 0.04, "unit": "µM"}, {"measurement": "force-calcium relationship", "setting": "[2]", "result": "dramatically left-shifts"}, {"measurement": "effect in myofibrils", "setting": "[3]", "result": "little or no effect"}, {"measurement": "average stimulation frequency for force production similar to pre-dose", "setting": "rat EDL muscle [4]; 1 mg/kg via duodenal cannula, vehicle 30 Hz", "result": "approximately 26 Hz"}, {"measurement": "EDL muscle fatigue", "setting": "rat EDL muscle [4]; 1 mg/kg, 600 seconds protocol, FIG. 4", "result": "decreased rat EDL muscle fatigue in situ"}, {"measurement": "average stimulation frequency for force production similar to pre-dose", "setting": "rat EDL muscle [5]; 0.5 mg/kg", "result": 29, "unit": "Hz"}, {"measurement": "average stimulation frequency for force production similar to pre-dose", "setting": "rat EDL muscle [5]; 1 mg/kg", "result": 26, "unit": "Hz"}, {"measurement": "time of rise to initial increase in force", "setting": "rat EDL muscle [5]; FAL rats", "result": "160 to 170", "unit": "s"}, {"measurement": "time to fatigue and tension-generating capacity", "setting": "rat EDL muscle [5]; FAL rats vs vehicle, FIG. 5", "result": "dose-dependent increase"}, {"measurement": "initial increase in force", "setting": "rat EDL muscle [5]; FAL rats, jugular vein bolus", "result": "156.3±10.4 % of initial force"}, {"measurement": "time for force to decrease to 50% of initial force", "setting": "rat EDL muscle [5]; FAL rats, vehicle 259±30", "result": "752 ± 64", "unit": "s"}, {"measurement": "adverse events", "setting": "[6]; 750 mg single dose", "result": "adverse events in two patients"}, {"measurement": "adverse events vs dose", "setting": "[6]; single doses 375-750 mg", "result": "Dose related adverse events, particularly dizziness and others related to walking"}]}
